Drawing on US20240217978A1 (CHONG KUN DANG PHARMACEUTICAL CORP., priority 2021, published 2024), this text covers IC50 for 20 compounds.

A word on the IC50: it is the midpoint of a concentration-inhibition curve. A higher IC50 goes with lower potency.

Sequence of human adenosine A2a receptor (P29274 whole entry): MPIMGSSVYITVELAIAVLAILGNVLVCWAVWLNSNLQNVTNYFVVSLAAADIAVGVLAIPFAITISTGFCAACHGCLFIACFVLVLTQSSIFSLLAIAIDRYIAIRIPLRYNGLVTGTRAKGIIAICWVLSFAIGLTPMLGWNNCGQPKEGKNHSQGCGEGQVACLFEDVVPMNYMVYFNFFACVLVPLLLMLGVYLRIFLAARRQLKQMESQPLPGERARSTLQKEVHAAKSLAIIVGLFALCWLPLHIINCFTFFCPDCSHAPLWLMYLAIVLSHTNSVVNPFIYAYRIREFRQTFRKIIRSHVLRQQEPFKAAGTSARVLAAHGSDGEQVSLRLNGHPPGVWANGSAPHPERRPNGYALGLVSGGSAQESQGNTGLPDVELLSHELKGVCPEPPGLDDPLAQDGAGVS

This assay addresses human adenosine A2a receptor (Homo sapiens (Human), UniProt P29274). The experiment in a line: A2a receptor binding affinity, [3H]-NECA radioligand binding test. The following applies: [3H]-NECA 37 nM; membrane from HEK-293 cells transfected with human adenosine A2a receptor. The protocol: The binding affinity of the compounds according to Examples of the present invention to the human adenosine A2a receptor was evaluated by entrusting SB drug discovery in the UK.
A radioligand binding test was conducted by using [3H]-NECA (5′-N-[adenine-2,8-3H]-ethylcarboxamidoadenosine) and an adenosine A2a membrane. As the adenosine A2a membrane, a cell membrane prepared from HEK-293 cells transfected with human adenosine A2a receptor was used. The membrane used for the test was prepared by incubating with a radioligand until equilibrium was reached. In order to separate the radioligand-bound membrane, the unbound radioligand was separated by using Packard filtermate Harverster and glass filter plates.
10 μL of test compound dissolved in binding buffer (50 mM Tris, 10 mM MgCl2, 1 mM EDTA pH 7.4) and 20 μL of [3H]-NECA (final concentration of 37 nM) or reference inhibitor was mixed with 20 μL of A2a membrane in an unbound 96-well plate and incubated at room temperature for one hour. Prior to filtration, a 96-well harvest filter plate was coated with 0.33% polyethylenimine for 30 minutes and then washed with assay buffer. The binding reaction was transferred to the filter plate and washed three times with wash buffer. The dish was then dried, scintillant was added, and radioactivity was counted in a scintillation counter (Topcount NXT, Packard).
The binding affinity IC50 (μM) for the human adenosine A2a receptor obtained according to the above experimental method is shown in the table below.
With `CC(C)S(=O)(=O)N1CCN(C(=O)[C@@H]2CCCN2c2nc(N)n3nc(-c4ccco4)nc3n2)CC1` [Example 71, (S)-(1-(7-amino-2-(furan-2-yl)-[1,2,4]triazolo[1,5-a][1,3,5]triazin-5-yl)pyrrolidin-2-yl)(4-(isopropylsulfonyl)piperazin-1-yl)methanone], the IC50 came out at 10 nM.

As to `Nc1nc(N2CCC[C@H]2C(=O)N2C3CCC2CN(C(=O)Nc2ccccc2)C3)nc2nc(-c3ccco3)nn12` [Example 180, 8-((7-amino-2-(furan-2-yl)-[1,2,4]triazolo[1,5-a][1,3,5]triazin-5-yl)-L-prolyl)-N-phenyl-3,8-diazabicyclo[3.2.1]octane-3-carboxamide], the IC50 worked out at 7 nM.

Regarding `Nc1nc(N2CCC[C@H]2C(=O)N2CCN(Cc3ccccc3)CC2)nc2nc(-c3ccco3)nn12` [Example 27, (S)-(1-(7-amino-2-(furan-2-yl)-[1,2,4]triazolo[1,5-a][1,3,5]triazin-5-yl)pyrrolidin-2-yl)(4-benzylpiperazin-1-yl)methanone], the IC50 is 7 nM.

Consider `Nc1nc(N2CCC[C@H]2C(=O)N2CCC(C(=O)Nc3ccccn3)CC2)nc2nc(-c3ccco3)nn12` [Example 79, 1-((7-amino-2-(furan-2-yl)-[1,2,4]triazolo[1,5-a][1,3,5]triazin-5-yl)-L-prolyl)-N-(pyridin-2-yl)piperidin-4-carboxamide], for which the IC50 was determined as 11 nM.

The compound `CCC(C)[C@H](Nc1nc(N)n2nc(-c3ccco3)nc2n1)C(=O)N1CCN(c2ccc(F)cc2F)CC1` (stereo partly drawn) [Example 166, (2S)-2-((7-amino-2-(furan-2-yl)-[1,2,4]triazolo[1,5-a][1,3,5]triazin-5-yl)amino)-1-(4-(2,4-difluorophenyl)piperazin-1-yl)-3-methylpentan-1-one] returned an IC50 of 0.08 nM.

`CCc1cccc(NC(=O)C2CCN(C(=O)[C@@H]3CCCN3c3nc(N)n4nc(-c5ccco5)nc4n3)CC2)c1` [Example 131, 1-((7-amino-2-(furan-2-yl)-[1,2,4]triazolo[1,5-a][1,3,5]triazin-5-yl)-L-prolyl)-N-(3-ethylphenyl)piperidin-4-carboxamide] yielded an IC50 of 4 nM.

Compound `COCCN1CCN(C2CN(C(=O)[C@@H]3CCCN3c3nc(N)n4nc(-c5ccco5)nc4n3)C2)CC1` [Example 405, (S)-(1-(7-amino-2-(furan-2-yl)-[1,2,4]triazolo[1,5-a][1,3,5]triazin-5-yl)pyrrolidin-2-yl)(3-(4-(2-methoxyethyl)piperazin-1-yl)azetidin-1-yl)methanone] gave an IC50 of 71 nM.

For the compound `Cc1ccc(-c2nc3nc(N4CCC[C@H]4C(=O)N4CCN(CC(F)(F)C(F)F)CC4)nc(N)n3n2)o1` [Example 298, (S)-(1-(7-amino-2-(5-methylfuran-2-yl)-[1,2,4]triazolo[1,5-a][1,3,5]triazin-5-yl)pyrrolidin-2-yl)(4-(2,2,3,3-tetrafluoropropyl)piperazin-1-yl) methanone], the IC50 is 3 nM.

As to `Nc1nc(N2CCC[C@H]2C(=O)N2CCN(CCN3CCOCC3)CC2)nc2nc(-c3ccco3)nn12` [Example 53, 4-(2-(4-((7-amino-2-(furan-2-yl)-[1,2,4]triazolo[1,5-a][1,3,5]triazine-5-yl)-L-prolyl)piperazin-1-yl)ethyl)morpholine], the IC50 stood at 8 nM.

Compound `CC(C)(F)CN1CCN(C(=O)[C@H]2CCCN2c2nc(N)n3nc(-c4ccco4)nc3n2)CC1` [Example 93, (R)-(1-(7-amino-2-(furan-2-yl)-[1,2,4]triazolo[1,5-a][1,3,5]triazin-5-yl)pyrrolidin-2-yl)(4-(2-fluoro-2-methylpropyl)piperazin-1-yl)methanone] gave an IC50 of 3790 nM.

Take `Nc1nc(N2CCC[C@H]2C(=O)N2CCC(C3CCN(CCCC(F)(F)F)CC3)CC2)nc2nc(-c3ccco3)nn12` [Example 291, (S)-(1-(7-amino-2-(furan-2-yl)-[1,2,4]triazolo[1,5-a][1,3,5]triazin-5-yl)pyrrolidin-2-yl)(1′-(4,4,4-trifluorobutyl)-[4,4′-bipiperidin]-1-yl)methanone]: the IC50 was determined as 5 nM.

As to `CCC(F)(CC)CN1CCN(C(=O)[C@@H]2CCCN2c2nc(N)n3nc(-c4ccco4)nc3n2)CC1` [Example 43, (S)-(1-(7-amino-2-(furan-2-yl)-[1,2,4]triazolo[1,5-a][1,3,5]triazin-5-yl)pyrrolidin-2-yl)(4-(2-ethyl-2-fluorobutyl)piperazin-1-yl)methanone], the half-inhibitory concentration (IC50) amounted to 11 nM.

As to `CC[C@H](Nc1nc(N)n2nc(-c3ccco3)nc2n1)C(=O)N1CCN(CC(F)(F)F)CC1` [Example 211, (S)-2-((7-amino-2-(furan-2-yl)-[1,2,4]triazolo[1,5-a][1,3,5]triazin-5-yl)amino)-1-(4-(2,2,2-trifluoroethyl)piperazin-1-yl)butan-1-one], the IC50 stood at 15 nM.

`CCC(O)(CC)CN1CCN(C(=O)[C@@H](Nc2nc(N)n3nc(-c4ccco4)nc3n2)C2CCCCC2)CC1` [Example 185, (S)-2-((7-amino-2-(furan-2-yl)-[1,2,4]triazolo[1,5-a][1,3,5]triazin-5-yl)amino)-2-cyclohexyl-1-(4-(2-ethyl-2-hydroxybutyl)piperazin-1-yl)ethan-1-one]: the IC50 stood at 3 nM.

In the case of `Nc1nc(N2CCC[C@H]2C(=O)N2CC3(CCN(C(=O)c4ccccc4)CC3)C2)nc2nc(-c3ccco3)nn12` [Example 160, (2-((7-amino-2-(furan-2-yl)-[1,2,4]triazolo[1,5-a][1,3,5]triazin-5-yl)-L-prolyl)-2,7-diazaspiro[3.5]nonan-7-yl)(phenyl)methanone], the concentration for half-maximal inhibition (IC50) was 4 nM.

In turn, `C[C@H](Nc1nc(N)n2nc(-c3ccco3)nc2n1)C(=O)N1CCC2(CC1)CN(Cc1ccc(F)cc1F)C2` [Example 31, (S)-2-((7-amino-2-(furan-2-yl)-[1,2,4]triazolo[1,5-a][1,3,5]triazin-5-yl)amino)-1-(2-(2,4-difluorobenzyl)-2,7-diazaspiro[3.5]nonan-7-yl)propan-1-one] displayed a 50% inhibitory concentration (IC50) of 1 nM.

The compound `Nc1nc(N2CCC[C@H]2C(=O)N2CC3CCC(C2)N3Cc2ccc(F)cc2F)nc2nc(-c3ccco3)nn12` [Example 50, ((S)-1-(7-amino-2-(furan-2-yl)-[1,2,4]triazolo[1,5-a][1,3,5]triazin-5-yl)pyrrolidin-2-yl)(8-(2,4-difluorobenzyl)-3,8-diazabicyclo[3.2.1]octan-3-yl)methanone] displayed a half-maximal inhibitory concentration (IC50) of 9 nM.

Turning to `COc1ccc(NC(=O)N2CCN(C(=O)[C@@H]3CCCN3c3nc(N)n4nc(-c5ccco5)nc4n3)CC2)cc1` [Example 62, 4-((7-amino-2-(furan-2-yl)-[1,2,4]triazolo[1,5-a][1,3,5]triazin-5-yl)-L-prolyl)-N-(4-methoxyphenyl)piperazin-1-carboxamide], the IC50 is 6 nM.

For the compound `Nc1nc(N2CCCC[C@H]2C(=O)N2CCN(CC(F)(F)C(F)F)CC2)nc2nc(-c3ccco3)nn12` [Example 279, (S)-(1-(7-amino-2-(furan-2-yl)-[1,2,4]triazolo[1,5-a][1,3,5]triazin-5-yl)piperidin-2-y1)(4-(2,2,3,3-tetrafluoropropyl)piperazin-1-yl)methanone], the IC50 was 14 nM.

`COCCN1CCC(C2CCN(C(=O)[C@@H]3CCN3c3cc4nc(-c5ccco5)nn4c(N)n3)CC2)CC1` [Example 380, (S)-(1-(5-amino-2-(furan-2-yl)-[1,2,4]triazolo[1,5-c]pyrimidin-7-yl)azetidin-2-yl)(1′-(2-methoxyethyl)-[4,4′-bipiperidin]-1-yl)methanone] yielded an IC50 of 5 nM.
